Results reported in patent publication US20100216767A1, “QUINAZOLINES FOR PDK1 INHIBITION” (priority 2006, published 2010).

Target: T1, PDK1 kinase (Homo sapiens, UniProt O15530)
T1 sequence (O15530 1-556): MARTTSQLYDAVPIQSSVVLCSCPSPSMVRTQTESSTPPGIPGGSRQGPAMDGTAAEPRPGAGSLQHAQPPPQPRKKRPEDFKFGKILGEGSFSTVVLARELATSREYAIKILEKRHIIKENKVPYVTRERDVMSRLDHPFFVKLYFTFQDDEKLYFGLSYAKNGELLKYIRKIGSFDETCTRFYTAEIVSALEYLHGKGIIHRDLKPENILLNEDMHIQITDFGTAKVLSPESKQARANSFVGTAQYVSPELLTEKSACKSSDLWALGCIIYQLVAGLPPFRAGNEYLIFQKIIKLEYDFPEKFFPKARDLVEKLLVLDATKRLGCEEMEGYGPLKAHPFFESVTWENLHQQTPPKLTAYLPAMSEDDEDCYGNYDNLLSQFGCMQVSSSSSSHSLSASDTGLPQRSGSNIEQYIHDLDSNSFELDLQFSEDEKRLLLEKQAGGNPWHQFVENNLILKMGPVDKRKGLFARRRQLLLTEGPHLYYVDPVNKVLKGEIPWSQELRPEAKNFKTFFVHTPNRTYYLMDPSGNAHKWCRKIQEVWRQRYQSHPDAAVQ
Experiment: PDK1 Kinase Alpha Screen Assay
Format: biochemical
Settings: Table 1; 10 μM ATP, 50 nM PDK1-4 peptide
Experimental: Reagents/Concentrations: The PDK1-4 peptide substrate, biotin-[…]-NH2, (SEQ ID NO: 1), was purchased from the Tufts University Core Facility. The final concentration of PDK1-4 peptide substrate was 50 nM. The ATP substrate (adenosine-[…] triphosphate) was purchased from Roche Diagnostics. The final concentration of ATP substrate was 10 μM. Phospho-(Ser/Thr) PKA substrate antibody was purchased from Cell Signaling Technology. The final concentration of antibody was 0.3 mg/mL. The Alpha Screen Protein A detection kit containing donor and acceptor beads was purchased from PerkinElmer Life Sciences. The final concentration of both donor and acceptor beads was 25 μg/mL. Alpha Screen was used for detection. The biotinylated-PDK1-4 peptide was phosphorylated by PDK1 kinase using the ATP substrate. The biotinylated-PDK1-4 peptide substrate was bound to the streptavidin coated donor bead. The antibody was bound to the protein A coated acceptor bead. The antibody bound to the phosphorylated form of the biotinylated PDK-1 peptide substrate, bringing the donor and acceptor beads into close proximity. Laser irradiation of the donor bead at 680 nm generated a flow of short-lived singlet oxygen molecules. When the donor and acceptor beads were in close proximity, the reactive oxygen generated by the irradiation of the donor beads initiated a luminescence/fluorescence cascade in the acceptor beads. This process led to a highly amplified signal with output in the 530-620 nm range. Assays were carried out in 50 mM Tris, pH=7.5, 10 mM MgCl2, 0.1% BSA, 0.01% Tween-20, 2 mM dithiolthreitol, 2.5% dimethyl sulfoxide. Reactions were stopped by adding 50 mM Tris, pH=7.5, 90 mM EDTA, 0.1% BSA, 0.01% Tween-20.
Procedure: To 10 μl, of PDK1-4 peptide, […] of test compound in dimethyl sulfoxide was added. PDK1 kinase and ATP were mixed, and 10 μL of the PDK1 kinase/ATP mix was added to start the reaction. The reaction was allowed to proceed for 3-18 hours. The reactions were then stopped by adding 10 μL of the EDTA-containing stop buffer. Beads were mixed with antibody, and 25 μL of the bead/antibody mix was then added to the stopped reactions. Plates were incubated at room temperature overnight to allow for detection development before being read. The assay was run in a 384-well format plate.

| Structure (SMILES) | IC50 [µM] |
| --- | --- |
| C#Cc1ccc2nc(Nc3cccc(S(N)(=O)=O)c3)ncc2c1 [Example 60, 3-(6-ethynylquinazolin-2-ylamino)benzene-sulfonamide] | < 5 |
| C#Cc1ccc2nc(Nc3cccc(NS(C)(=O)=O)c3)ncc2c1 [Example 61, N-(3-(6-ethynylquinazolin-2-ylamino)phenyl)-methane-sulfonamide] | < 5 |
| COc1cc(-c2cnn(C)c2)cc2cnc(Nc3ccc(S(N)(=O)=O)cc3)nc12 [Example 62, 4-(8-methoxy-6-(1-methyl-1H-pyrazol-4-yl)-quinazolin-2-ylamino)-benzenesulfonamide] | < 5 |
| COc1cc(-c2nccs2)cc2cnc(Nc3ccc(S(N)(=O)=O)cc3)nc12 [Example 63, 4-(8-methoxy-6-(thiazol-2-yl)quinazolin-2-ylamino)-benzenesulfonamide] | < 5 |
| COc1cc(C#CC(C)(C)O)cc2cnc(Nc3ccc(S(N)(=O)=O)cc3)nc12 [Example 65, 4-(6-(3-hydroxy-3-methylbut-1-ynyl)-8-methoxyquinazolin-2-ylamino)benzenesulfonamide] | < 5 |
| COc1cc(C#CC(C)(C)N)cc2cnc(Nc3ccc(S(N)(=O)=O)cc3)nc12 [Example 66, 4-(6-(3-amino-3-methylbut-1-ynyl)-8-methoxyquinazolin-2-ylamino)benzenesulfonamide] | 10 to 25 |
| NS(=O)(=O)c1ccc(Nc2ncc3cc(-c4cc[nH]n4)ccc3n2)cc1 [Example 67, 4-(6-(1H-pyrazol-3-yl)-quinazolin-2-ylamino)-benzenesulfonamide] | < 5 |
| CC(=O)Nc1ccc2nc(Nc3ccc(S(N)(=O)=O)cc3)ncc2c1 [Example 68, N-(2-(4-Sulfamoylphenylamino)quinazolin-6-yl)acetamide] | < 5 |
| C#Cc1cc2cnc(Nc3ccc(N4CCOCC4)cc3)nc2cc1OC [Example 69, 6-ethynyl-7-methoxy-N-(4-morpholinophenyl)-quinazolin-2-amine] | < 5 |
| C#Cc1cc(OC)c2nc(Nc3ccc(N4CCOCC4)cc3)ncc2c1 [Example 70, 6-ethynyl-8-methoxy-N-(4-morpholinophenyl)-quinazolin-2-amine] | < 5 |
| C#Cc1ccc2nc(Nc3cccc(CN(C)C)c3)ncc2c1 [Example 71, N-(3-((dimethylamino)-methyl)phenyl)-6-ethynylquinazolin-2-amine] | < 5 |
| C#Cc1ccc2nc(Nc3ccc(C(=O)NC(C)C)cc3)ncc2c1 [Example 72, 4-(6-ethynylquinazolin-2-ylamino)-N-isopropyl-benzamide] | < 5 |
| C#Cc1cc2cnc(Nc3ccc(C(=O)NC(C)C)cc3)nc2cc1OC [Example 73, 4-(6-ethynyl-7-methoxy-quinazolin-2-ylamino)-N-isopropylbenzamide] | < 5 |
| C#Cc1cc2cnc(Nc3ccc(C(=O)N4CCOCC4)cc3)nc2cc1OC [Example 74, (4-(6-ethynyl-7-methoxy-quinazolin-2-ylamino)-phenyl)(morpholino)-methanone] | < 5 |
| NC(=O)c1ccc(Nc2ncc3cc(-c4nccs4)ccc3n2)cc1 [Example 75, 4-(6-(thiazol-2-yl)-quinazolin-2-ylamino)-benzamide] | < 5 |
| N#Cc1ccc2nc(Nc3ccc(N4CCOCC4)cc3)ncc2c1 [Example 76, 2-(4-morpholinophenyl-amino)quinazoline-6-carbonitrile] | < 5 |
| Brc1ccc2nc(Nc3ccc(N4CCOCC4)cc3)ncc2c1 [Example 77, 6-bromo-N-(4-morpholino-phenyl)quinazolin-2-amine] | < 5 |

| Structure (SMILES) | IC50 [µM] |
| --- | --- |
| N#Cc1ccc2nc(Nc3ccc(C(N)=O)cc3)ncc2c1 [Example 78, 4-(6-cyanoquinazolin-2-ylamino)benzamide] | < 5 |
| NC(=O)c1ccc(Nc2ncc3cc(Br)ccc3n2)cc1 [Example 79, 4-(6-bromoquinazolin-2-ylamino)benzamide] | < 5 |
| C#Cc1cc(OC)c2nc(Nc3cccc(N4CCOCC4)c3)ncc2c1 [Example 80, 6-ethynyl-8-methoxy-N-(3-morpholinophenyl)-quinazolin-2-amine] | < 5 |
| C#Cc1ccc2nc(Nc3ccc(C(=O)N4CCOCC4)cc3)ncc2c1 [Example 81, (4-(6-ethynylquinazolin-2-ylamino)phenyl)-(morpholino)methanone] | < 5 |
| C#Cc1ccc2nc(Nc3ccc(N4CCOCC4)c(CN(C)C)c3)ncc2c1 [Example 82, N-(3-((dimethylamino)-methyl)-4-morpholino-phenyl)-6-ethynyl-quinazolin-2-amine] | < 5 |
| C#Cc1ccc2nc(Nc3cc(CN(C)C)cc(NC(C)=O)c3)ncc2c1 [Example 83, N-(3-((dimethylamino)-methyl)-5-(6-ethynyl-quinazolin-2-ylamino)-phenyl)acetamide] | < 5 |
| CC(=O)Nc1cc(CN(C)C)cc(Nc2ncc3cc(-c4nccs4)ccc3n2)c1 [Example 84, N-(3-((dimethylamino)-methyl)-5-(6-(thiazol-2-yl)quinazolin-2-ylamino)-phenyl)acetamide] | < 5 |
| C#Cc1cc2cnc(Nc3cc(CN(C)C)cc(NC(C)=O)c3)nc2cc1OC [Example 85, N-(3-((dimethylamino)methyl)-5-(6-ethynyl-7-methoxy-quinazolin-2-ylamino)-phenyl)acetamide] | < 5 |
| C#Cc1cc(OC)c2nc(Nc3cc(CN(C)C)cc(NC(C)=O)c3)ncc2c1 [Example 86, N-(3-((dimethylamino)-methyl)-5-(6-ethynyl-8-methoxyquinazolin-2-ylamino)phenyl)acetamide] | < 5 |
| COc1cc(-c2nccs2)cc2cnc(Nc3cc(CN(C)C)cc(NC(C)=O)c3)nc12 [Example 87, N-(3-((dimethylamino)-methyl)-5-(8-methoxy-6-(thiazol-2-yl)quinazolin-2-ylamino)phenyl)acetamide] | < 5 |
| C#Cc1cc(OC)c2nc(Nc3cc(CN(C)C)cc(NC(C)=O)c3)ncc2c1Cl [Example 88, N-(3-(5-chloro-6-ethynyl-8-methoxyquinazolin-2-ylamino)-5-((dimethyl-amino)methyl)phenyl)-acetamide] | < 5 |
| COc1cc(Br)c(Cl)c2cnc(Nc3ccc(C(=O)NC(C)C)cc3)nc12 [Example 89, 4-(6-bromo-5-chloro-8-methoxyquinazolin-2-ylamino)-N-isopropyl-benzamide] | < 5 |
| C#Cc1ccc2nc(Nc3cc(CN(C)C)cc(NC(C)=O)c3)ncc2c1Cl [Example 90, N-(3-(5-chloro-6-ethynyl-quinazolin-2-ylamino)-5-((dimethylamino)methyl)-phenyl)acetamide] | < 5 |
| CC(=O)Nc1cc(CN(C)C)cc(Nc2ncc3c(Cl)c(-c4nccs4)ccc3n2)c1 [Example 91, N-(3-(5-chloro-6-(thiazol-2-yl)quinazolin-2-ylamino)-5-((dimethyl-amino)methyl)phenyl)-acetamide] | < 5 |
| CC(=O)Nc1cc(CN(C)C)cc(Nc2ncc3cc(-c4cncnc4)ccc3n2)c1 [Example 92, N-(3-((dimethylamino)-methyl)-5-(6-(pyrimidin-5-yl)quinazolin-2-ylamino)-phenyl)acetamide] | < 5 |
| COc1ncccc1-c1ccc2nc(Nc3cc(CN(C)C)cc(NC(C)=O)c3)ncc2c1 [Example 93, N-(3-((dimethylamino)-methyl)-5-(6-(2-methoxy-pyridin-3-yl)quinazolin-2-ylamino)phenyl)acetamide] | 5 to 10 |
